Data taken from US20140005163A1 (NOVARTIS AG, priority 2010, published 2014).

How the values were obtained:
PI3K delta = target: T1, PI3K delta (Homo sapiens, UniProt O00329); assay: PI3K delta kinase assay (Kinase-Glo luminescence); format: biochemical
T1 construct: for the full-length p110-d subunit are generated and fused by overlapping PCR; p85(iSH2) fusion partner (see partner chain) (N); His tag (C); made in house; host or cells: baculovirus; Tn5 (Trichoplusia ni) or TiniPro insect cells
Outline: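 ATP 1 μM, PI 10 μg/mL, PI3Kδ construct BV1060 10 nM (final); 10 mM Tris pH 7.5, 3 mM MgCl2, 50 mM NaCl, 0.05% CHAPS, 1 mM DTT; 60 min RT; Kinase-Glo stop, luminescence.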

[1] = test system: PKB Ser473 phosphorylation in Rat1-myr-HA-p110 beta cells; assay: Reverse protein array assay, PKB Ser473 phosphorylation in Rat1-myr-p110 beta cells; format: cell-based; conditions: 0.5 h, pAkt Ser473, 30 minutes incubation, read-out: p-PKB IC50
Outline: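 Compound exposure lasted 30 min in Rat1 cells bearing membrane-targeted HA-p110 isoforms, using 8 serial concentrations. Arrayed lysates, each spotted at four dilutions, gave relative fluorescence signals for phospho-Ser473 PKB.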

[2] = test system: S6 Ribosomal Protein phosphorylation Ser235/236 in TSC1 null mouse embryo fibroblast (MEF) cells; assay: Reverse protein array assay, S6 Ribosomal Protein phosphorylation Ser235/236 in TSC1 null MEF cells; format: cell-based; conditions: 1 h, pS6 ribosomal protein Ser235/236, 60 minutes incubation, read-out: p-S6 IC50
Outline: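 TSC1−/− MEFs, seeded and held ≥20 h at 37 °C/5% CO2, were exposed to 8-step serial compound dilutions (0.02% DMSO final; DMSO vehicle control) for 60 min at 37 °C. Cells were then lysed on ice for 10 min and lysates spotted onto reverse protein array chips.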

T1 sequence (O00329 with tags, fused parts or gaps limits assumed): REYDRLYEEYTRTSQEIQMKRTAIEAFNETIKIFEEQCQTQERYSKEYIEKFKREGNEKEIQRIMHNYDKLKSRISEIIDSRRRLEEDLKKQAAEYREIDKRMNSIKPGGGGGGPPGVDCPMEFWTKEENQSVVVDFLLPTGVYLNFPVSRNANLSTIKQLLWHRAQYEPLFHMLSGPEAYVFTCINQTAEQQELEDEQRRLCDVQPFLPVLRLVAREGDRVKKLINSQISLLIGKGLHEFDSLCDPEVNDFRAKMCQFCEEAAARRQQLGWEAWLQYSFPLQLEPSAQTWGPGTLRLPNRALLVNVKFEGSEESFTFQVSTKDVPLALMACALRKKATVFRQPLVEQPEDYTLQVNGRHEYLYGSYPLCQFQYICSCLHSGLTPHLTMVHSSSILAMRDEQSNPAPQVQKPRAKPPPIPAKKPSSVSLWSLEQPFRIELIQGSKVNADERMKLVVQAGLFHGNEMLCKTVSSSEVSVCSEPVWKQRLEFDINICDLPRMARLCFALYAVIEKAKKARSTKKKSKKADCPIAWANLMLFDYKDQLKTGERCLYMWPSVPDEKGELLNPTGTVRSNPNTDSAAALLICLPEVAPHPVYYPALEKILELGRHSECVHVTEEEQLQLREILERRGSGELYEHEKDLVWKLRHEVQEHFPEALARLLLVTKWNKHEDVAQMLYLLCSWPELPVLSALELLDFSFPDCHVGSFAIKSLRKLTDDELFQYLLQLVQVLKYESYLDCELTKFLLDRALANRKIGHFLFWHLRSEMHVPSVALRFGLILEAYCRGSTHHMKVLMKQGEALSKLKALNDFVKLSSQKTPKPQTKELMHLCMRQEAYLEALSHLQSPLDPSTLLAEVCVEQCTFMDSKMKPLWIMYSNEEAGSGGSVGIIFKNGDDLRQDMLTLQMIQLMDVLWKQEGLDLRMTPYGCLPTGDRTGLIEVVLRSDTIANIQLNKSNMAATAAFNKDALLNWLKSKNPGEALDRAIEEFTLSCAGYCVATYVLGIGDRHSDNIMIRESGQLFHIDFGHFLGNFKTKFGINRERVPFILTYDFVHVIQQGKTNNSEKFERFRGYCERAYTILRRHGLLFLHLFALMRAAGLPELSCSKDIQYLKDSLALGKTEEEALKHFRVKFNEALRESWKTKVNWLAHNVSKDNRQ

Row | IC50 (PI3K delta) | IC50 [1] | Structure (SMILES) | IC50 [2]
1 | 12 nM | 96 nM | COc1ccc(-c2ccc3ncc4c(c3c2)n(-c2ccnn2C)c(=O)n4C)cc1OC [Example 1.3, 8-(3,4-Dimethoxy-phenyl)-3-methyl-1-(2-methyl-2H-pyrazol-3-yl)-1,3-dihydro-imidazo[4,5-c]quinolin-2-one] | –
2 | 5 nM | 8 nM | COc1ccc(-c2ccc3ncc4c(c3c2)n(-c2cn(C)nc2C)c(=O)n4C)cc1OC [Example 1.8, 8-(3,4-Dimethoxy-phenyl)-1-(1,3-dimethyl-1H-pyrazol-4-yl)-3-methyl-1,3-dihydro-imidazo[4,5-c]quinolin-2-one] | < 5 nM
3 | 30 nM | 116 nM | COc1ccc(-c2ccc3ncc4c(c3c2)n(-c2cc(C)nn2C)c(=O)n4C)cn1 [Example 2.3, 1-(2,5-Dimethyl-2H-pyrazol-3-yl)-8-(6-methoxy-pyridin-3-yl)-3-methyl-1,3-dihydro-imidazo[4,5-c]quinolin-2-one] | –
4 | 15 nM | 41 nM | COc1ccc(-c2ccc3ncc4c(c3c2)n(-c2cn(C(C)C)nc2C)c(=O)n4C)cn1 [Example 2.8, 1-(1-Isopropyl-3-methyl-1H-pyrazol-4-yl)-8-(6-methoxy-pyridin-3-yl)-3-methyl-1,3-dihydro-imidazo[4,5-c]quinolin-2-one] | 21 nM
5 | 283 nM | 248 nM | CCOc1ccc(-c2ccc3ncc4c(c3c2)n(-c2ccnn2CC)c(=O)n4C)cn1 [Example 3.4, 8-(6-Ethoxy-pyridin-3-yl)-1-(2-ethyl-2H-pyrazol-3-yl)-3-methyl-1,3-dihydro-imidazo[4,5-c]quinolin-2-one] | 199 nM
6 | 40 nM | 29 nM | CCOc1ccc(-c2ccc3ncc4c(c3c2)n(-c2cn(CC)nc2C)c(=O)n4C)cn1 [Example 3.5, 8-(6-Ethoxy-pyridin-3-yl)-1-(1-ethyl-3-methyl-1H-pyrazol-4-yl)-3-methyl-1,3-dihydro-imidazo[4,5-c]quinolin-2-one] | 58 nM
7 | 158 nM | 119 nM | CCOc1ccc(-c2ccc3ncc4c(c3c2)n(-c2cnn(C)c2C)c(=O)n4C)cn1 [Example 3.6, 1-(1,5-Dimethyl-1H-pyrazol-4-yl)-8-(6-ethoxy-pyridin-3-yl)-3-methyl-1,3-dihydro-imidazo[4,5-c]quinolin-2-one] | 15 nM
8 | 39 nM | 19 nM | Cc1nn(C(C)C)cc1-n1c(=O)n(C)c2cnc3ccc(-c4ccc(N(C)C)nc4)cc3c21 [Example 4.1, 8-(6-Dimethylamino-pyridin-3-yl)-1-(1-isopropyl-3-methyl-1H-pyrazol-4-yl)-3-methyl-1,3-dihydro-imidazo[4,5-c]quinolin-2-one] | 15 nM
9 | 44 nM | 52 nM | CCn1cc(-n2c(=O)n(C)c3cnc4ccc(-c5cnc(N(C)C)nc5)cc4c32)c(C)n1 [Example 6.4, 8-(2-Dimethylamino-pyrimidin-5-yl)-1-(1-ethyl-3-methyl-1H-pyrazol-4-yl)-3-methyl-1,3-dihydro-imidazo[4,5-c]quinolin-2-one] | 10 nM
10 | 329 nM | 21 nM | CNC(=O)c1ccc(-c2ccc3ncc4c(c3c2)n(-c2cn(C(C)C)nc2C)c(=O)n4C)cn1 [Example 15.3, 5-[1-(1-Isopropyl-3-methyl-1H-pyrazol-4-yl)-3-methyl-2-oxo-2,3-dihydro-1H-imidazo[4,5-c]quinolin-8-yl]-pyridine-2-carboxylic acid methylamide] | 17 nM
11 | 18 nM | 70 nM | Cc1nn(C)cc1-n1c(=O)n(C)c2cnc3ccc(-c4ccc(CO)nc4)cc3c21 [Example 16.2, 1-(1,3-Dimethyl-1H-pyrazol-4-yl)-8-(6-hydroxymethyl-pyridin-3-yl)-3-methyl-1,3-dihydro-imidazo[4,5-c]quinolin-2-one] | 181 nM
12 | 115 nM | 231 nM | COCCOc1ccc(-c2ccc3ncc4c(c3c2)n(-c2cn(C)nc2C)c(=O)n4C)cn1 [Example 18, 1-(1,3-Dimethyl-1H-pyrazol-4-yl)-8-[6-(2-methoxy-ethoxy)-pyridin-3-yl]-3-methyl-1,3-dihydro-imidazo[4,5-c]quinolin-2-one] | –
13 | 17 nM | 21 nM | CCOc1ccc(-c2ccc3ncc4c(c3c2)n(-c2cn(CC)nc2C)c(=O)n4C)cc1OCC [Example 27.1, 8-(3,4-Diethoxy-phenyl)-1-(1-ethyl-3-methyl-1H-pyrazol-4-yl)-3-methyl-1,3-dihydro-imidazo[4,5-c]quinolin-2-one] | 13 nM
14 | 6 nM | 29 nM | CCOc1cc(-c2ccc3ncc4c(c3c2)n(-c2cn(CC)nc2C)c(=O)n4C)ccc1OC [Example 28.1, 8-(3-Ethoxy-4-methoxy-phenyl)-1-(1-ethyl-3-methyl-1H-pyrazol-4-yl)-3-methyl-1,3-dihydro-imidazo[4,5-c]quinolin-2-one] | < 5 nM
15 | 53 nM | 125 nM | CCOc1cc(-c2ccc3ncc4c(c3c2)n(-c2c(C)nn(C)c2C)c(=O)n4C)ccc1OC [Example 28.2, 8-(3-Ethoxy-4-methoxy-phenyl)-3-methyl-1-(1,3,5-trimethyl-1H-pyrazol-4-yl)-1,3-dihydro-imidazo[4,5-c]quinolin-2-one] | –
16 | 42 nM | 15 nM | CCOc1cc(-c2ccc3ncc4c(c3c2)n(-c2cn(C)nc2C)c(=O)n4C)ccc1OC [Example 28.3, 1-(1,3-Dimethyl-1H-pyrazo1-4-yl)-8-(3-ethoxy-4-methoxy-phenyl)-3-methyl-1,3-dihydro-imidazo[4,5-c]quinolin-2-one] | 2 nM
17 | 40 nM | 15 nM | CCOc1ccc(-c2ccc3ncc4c(c3c2)n(-c2cn(C)nc2C)c(=O)n4C)cc1OC [Example 29.3, 1-(1,3-Dimethyl-1H-pyrazol-4-yl)-8-(4-ethoxy-3-methoxy-phenyl)-3-methyl-1,3-dihydro-imidazo[4,5-c]quinolin-2-one] | 4 nM
18 | 42 nM | 43 nM | CCn1cc(-n2c(=O)n(C)c3cnc4ccc(-c5ccc(OCCOC)c(OC)c5)cc4c32)c(C)n1 [Example 30.2, 1-(1-Ethyl-3-methyl-1H-pyrazol-4-yl)-8-[3-methoxy-4-(2-methoxy-ethoxy)-phenyl]-3-methyl-1,3-dihydro-imidazo[4,5-c]quinolin-2-one] | 41 nM
19 | – | 235 nM | Cc1nn(CC(=O)N(C)C)cc1-n1c(=O)n(C)c2cnc3ccc(-c4ccccc4)cc3c21 [Example 37.3, N,N-Dimethyl-2-[3-methyl-4-(3-methyl-2-oxo-8-phenyl-2,3-dihydro-imidazo[4,5-c]quinolin-1-yl)-pyrazol-1-yl]-acetamide] | 15 nM
20 | 19 nM | 86 nM | COc1ncc(-c2ccc3ncc4c(c3c2)n(-c2cn(C)nc2C)c(=O)n4C)cc1[N+](=O)[O-] [Example 66, 1-(1,3-dimethyl-1H-pyrazol-4-yl)-8-(6-methoxy-5-nitro-pyridin-3-yl)-3-methyl-1,3-dihydro-imidazo[4,5-c]quinolin-2-one] | –
21 | 18 nM | 444 nM | Cc1nn(C)cc1-n1c(=O)n(C)c2cnc3ccc(-c4cncc(N(C)S(C)(=O)=O)c4)cc3c21 [Example 121, N-{5-[1-(1,3-Dimethyl-1H-pyrazol-4-yl)-3-methyl-2-oxo-2,3-dihydro-1H-imidazo[4,5-c]quinolin-8-yl]-pyridin-3-yl}-N-methyl-methanesulfonamide] | –
22 | – | 118 nM | CCN(C)C(=O)Cn1cc(-n2c(=O)n(C)c3cnc4ccc(-c5ccccc5)cc4c32)c(C)n1 [Example 135, N-Ethyl-N-methyl-2-[3-methyl-4-(3-methyl-2-oxo-8-phenyl-2,3-dihydro-imidazo[4,5-c]quinolin-1-yl)-pyrazol-1-yl]-acetamide] | 6 nM
23 | – | 100 nM | CCN(C)C(=O)Cn1cc(-n2c(=O)n(C)c3cnc4ccc(-c5cnc(N6CCCC6)nc5)cc4c32)c(C)n1 [Example 140.1, N-Ethyl-N-methyl-2-{3-methyl-4-[3-methyl-2-oxo-8-(2-pyrrolidin-1-yl-pyrimidin-5-yl)-2,3-dihydro-imidazo[4,5-c]quinolin-1-yl]-pyrazol-1-yl}-acetamide] | 5 nM
24 | 7 nM | 6 nM | CCn1cc(-n2c(=O)n(C)c3cnc4ccc(-c5cnc(NC)nc5OC)cc4c32)c(C)n1 [Example 236, 1-(1-Ethyl-3-methyl-1H-pyrazol-4-yl)-8-(4-methoxy-2-methylamino-pyrimidin-5-yl)-3-methyl-1,3-dihydro-imidazo[4,5-c]quinolin-2-one] | –

Row | Structure (SMILES) | IC50 (PI3K delta) | IC50 [1] | IC50 [2]
25 | Cc1nn(CC(=O)N(C)C)c(C)c1-n1c(=O)n(C)c2cnc3ccc(-c4cncc(OC5CCC5)c4)cc3c21 [Example 60.2, 2-{4-[8-(5-Cyclobutoxy-pyridin-3-yl)-3-methyl-2-oxo-2,3-dihydro-imidazo[4,5-c]quinolin-1-yl]-3,5-dimethyl-pyrazol-1-yl}-N,N-dimethyl-acetamide] | 694 nM | – | 11 nM
